Data: patent US20260364184A1, “COMPOUND BASED ON OXOISOINDOLINYL-SUBSTITUTED TETRAHYDROPYRIMIDINE-DIONE AND USE THEREOF” (GLUETACS THERAPEUTICS (SHANGHAI) CO., LTD., priority 2023, published 2026)
Like-named read-outs stand apart in the source and are kept apart here.

Experiments:
[1] = tested on: Human breast cancer cell line (MDA-MB-231); experiment: Inhibition of MDA-MB-231 cell proliferation (CellTiter luminescent viability); assay type: cell-based; conditions: Table IG3, FAK inhibitor-based, 96 hours
Experimental: The tumor cells used herein were cultured in a cell culture medium listed in table 3 at 37 °C in an incubator with 5% CO2. Prior to experimentation, all cell lines used were correctly identified by STR profiling, and tested negative for mycoplasma contamination using a mycoplasma detection kit through routine screenings.
The IC50 values of the compounds of the present disclosure (including the compounds in Table 1, Table 2, and Examples 1-468) were determined using the CellTiter-Meiluncell Luminescent Cell Viability Assay Kit from Dalian Meilun Biotech Co., Ltd. The detailed procedure is as follows: Tumor cells were seeded in 96-well cell culture plates at the densities specified in Table 4. On the following day, the test compounds of the present disclosure were subjected to serial dilution. The dilution can be performed according to one of the following two methods: • (1) The first dilution method: The test compounds of the present disclosure (including the compounds in Table 1, Table 2, and Examples 1-468) were subjected to 5-fold serial dilutions starting from a highest concentration of 2000 μM, resulting in a total of 9 concentrations from high to low (2000, 400, 80, 16, 3.2, 0.64, 0.128, 0.0256, 0.00512 μM). Subsequently, 0.5 μL of the test compound dilution was transferred into the 96-well plate containing the cells, with each well containing 100 μL of cell culture medium. […] Into the 96-well plate, the diluted test compounds and corresponding detection reagents were added, resulting in final test compound concentrations of 500 nM and 10 nM, respectively. The experimental procedure is described below using the diluted 2 μM test compound as an example.
0.5 μL of the aforementioned diluted compound of the present disclosure (including the compounds in Table 1, Table 2, and Examples 1-468) was added to the seeded cells in 100 μL of medium, yielding a final test compound concentration of 10 nM. After the cells were treated with the compounds of the present disclosure for a specified period, the cell viability assay reagent was added to the culture medium according to the kit's instructions to determine cell viability. […] All controls were treated using the same procedure as the compounds of the present disclosure. The growth inhibition curves for the compounds of the present disclosure were plotted using Prism GraphPad software, and the IC50 values were calculated therefrom.

[2] = target: T1, FAK (Homo sapiens, UniProt Q05397); experiment: Western blot degradation of FAK; assay type: cell-based; conditions: A549 Cell; 24 hours
T1 construct: expression of target proteins in cells; endogenous in cells
Experimental: (§1) Conventional Western blot assay was performed to evaluate the effects of the compounds of the present disclosure on the expression of target proteins in cells.
(§2) (1) Cell Seeding and Protein Harvesting: The selected cells were processed according to the cell seeding procedure and protein harvesting procedure in Table II-2.
(§3) (2) To the collected supernatant, 5×SDS sample loading buffer was added, followed by denaturation at 95 °C for 5 minutes. The denatured samples were then separated by SDS-PAGE electrophoresis on a polyacrylamide gel. Proteins were transferred to a nitrocellulose membrane (0.45 μm NC membrane), blocked with blocking buffer at room temperature for 1 hour, and subjected to antibody incubation and development procedures according to the antibody manufacturer's instructions (Cell Signaling Technology).
(§4) Half-Maximal Degradation Concentration value (the drug concentration required for degrading proteins by 50%, abbreviated as DC50) reads method: comparing the grayscale values of Western blot bands from drug-treated samples with those from blank DMSO-treated controls, and identifying the drug concentration range at which the grayscale value is half that of the DMSO-treated control bands.
(§5) DC50 values can be calculated using ImageJ software to measure grayscale values of Western blot bands from drug-treated samples. The concentration-response curve is fitted to estimate the drug concentration corresponding to half the grayscale value.
(§6) Target protein remaining (%) refers to the percentage of target protein remaining in cells after treatment with protein degrader compounds.
(§7) Calculation method for target protein remaining (%): Use ImageJ software to measure grayscale values of Western blot bands from drug (protein degrader)-treated samples. The grayscale value of drug-treated bands is divided by that of internal control protein bands, and the resulting quotient is normalized to obtain the relative percentage of remaining target protein after protein degrader treatment.
(§8) Target protein degradation rate (%)=1−target protein remaining (%).

[3] = tested on: Human myeloid monocytic leukemia cell line (MV-4-11); experiment: Inhibition of MV-4-11 cell proliferation (CellTiter luminescent viability); assay type: cell-based; conditions: Homo sapiens, MV4-11, 96 hours; for inhibition at 0.01 µM: MV-4-11, 10 nM, read-out: Inhibition Rate at 10 nM (%); for inhibition at 0.5 µM: MV-4-11, 500 nM, read-out: Inhibition Rate at 500 nM (%)
In short: (§9)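 IC50 is fitted from luminescent viability (CellTiter-Meiluncell) curves. Nine-point, 5-fold dilution series (top stock 2000 μM) are added at 0.5 μL per 100 μL medium to cells plated the day before, with growth at 37 °C and 5% CO2.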

[4] = target: T2, human Cereblon WT GST-tagged protein (CRBN) (Homo sapiens, UniProt Q96SW2); experiment: CRBN binding by HTRF (Cereblon binding kit)
T2 construct: purchased CISBIO 64BDCRBNPEH
In short: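 GST-tagged human Cereblon WT was incubated 3 h at room temperature with compound, thalidomide-Re tracer and Eu anti-GST antibody. Final compound concentrations were 10 to 0.00064 µM (7 points) or 2 and 0.5 µM. Inhibition rate was calculated from HTRF 665/620 nm ratios versus solvent and blank controls.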

[5] = tested on: Human Multiple myeloma cell line (MM.1S); experiment: Inhibition of MM.1S cell proliferation (CellTiter luminescent viability); assay type: cell-based; conditions: Homo sapiens, MM1.S, 96 hours; for inhibition at 0.01 µM: 10 nM, read-out: Inhibition Rate at 10 nM (%); for inhibition at 0.5 µM: 500 nM, read-out: Inhibition Rate at 500 nM (%)
In short: as §9

[6] = target: T3, C-ABL (Homo sapiens, UniProt P00519); experiment: Western blot degradation of C-ABL; assay type: cell-based; conditions: K562 Cell; 24 hours
T3 construct: K562 also holds p210 BCR-ABL (BCR P11274 fused to ABL1)
Experimental: as §1, §2, §3, §4, §5, §6, §7, §8

[7] = tested on: Human acute lymphocytic leukemia T lymphocytes cell line (CCRF-CEM); experiment: Inhibition of CCRF-CEM cell proliferation (CellTiter luminescent viability); assay type: cell-based; conditions: Homo sapiens, 96 h, Table IL3, BCR-ABL inhibitor-based
[8] = Table IL1, BCR-ABL inhibitor-based
[9] = Table IL2, BCR-ABL inhibitor-based

T1 sequence (Q05397 whole entry): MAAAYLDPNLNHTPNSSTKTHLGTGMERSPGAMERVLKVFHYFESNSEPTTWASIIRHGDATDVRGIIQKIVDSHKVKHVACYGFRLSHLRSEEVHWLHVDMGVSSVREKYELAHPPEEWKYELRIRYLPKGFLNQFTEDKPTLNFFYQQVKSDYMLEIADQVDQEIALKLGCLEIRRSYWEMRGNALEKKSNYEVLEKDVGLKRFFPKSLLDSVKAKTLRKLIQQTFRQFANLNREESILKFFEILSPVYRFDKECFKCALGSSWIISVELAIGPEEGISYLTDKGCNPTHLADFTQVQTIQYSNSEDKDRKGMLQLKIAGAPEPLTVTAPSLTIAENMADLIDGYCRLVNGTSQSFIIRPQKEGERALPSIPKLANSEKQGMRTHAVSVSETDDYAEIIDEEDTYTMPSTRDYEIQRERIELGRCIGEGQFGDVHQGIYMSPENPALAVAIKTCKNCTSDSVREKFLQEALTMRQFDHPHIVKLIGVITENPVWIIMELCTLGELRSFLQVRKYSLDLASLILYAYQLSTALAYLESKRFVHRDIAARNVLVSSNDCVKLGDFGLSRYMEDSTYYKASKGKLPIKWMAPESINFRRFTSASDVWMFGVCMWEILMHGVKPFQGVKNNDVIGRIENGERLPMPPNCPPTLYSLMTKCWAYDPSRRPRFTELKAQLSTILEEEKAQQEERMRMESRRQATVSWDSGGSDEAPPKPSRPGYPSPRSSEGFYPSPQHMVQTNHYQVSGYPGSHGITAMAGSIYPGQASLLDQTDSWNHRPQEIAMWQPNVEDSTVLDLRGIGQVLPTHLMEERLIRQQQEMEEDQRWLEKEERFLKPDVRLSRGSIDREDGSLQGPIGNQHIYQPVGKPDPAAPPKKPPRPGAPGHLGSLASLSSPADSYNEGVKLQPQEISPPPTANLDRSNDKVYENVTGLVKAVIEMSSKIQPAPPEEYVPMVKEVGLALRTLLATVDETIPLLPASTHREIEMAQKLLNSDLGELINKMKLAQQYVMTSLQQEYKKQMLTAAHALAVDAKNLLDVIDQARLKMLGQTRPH
T2 sequence (Q96SW2 whole entry): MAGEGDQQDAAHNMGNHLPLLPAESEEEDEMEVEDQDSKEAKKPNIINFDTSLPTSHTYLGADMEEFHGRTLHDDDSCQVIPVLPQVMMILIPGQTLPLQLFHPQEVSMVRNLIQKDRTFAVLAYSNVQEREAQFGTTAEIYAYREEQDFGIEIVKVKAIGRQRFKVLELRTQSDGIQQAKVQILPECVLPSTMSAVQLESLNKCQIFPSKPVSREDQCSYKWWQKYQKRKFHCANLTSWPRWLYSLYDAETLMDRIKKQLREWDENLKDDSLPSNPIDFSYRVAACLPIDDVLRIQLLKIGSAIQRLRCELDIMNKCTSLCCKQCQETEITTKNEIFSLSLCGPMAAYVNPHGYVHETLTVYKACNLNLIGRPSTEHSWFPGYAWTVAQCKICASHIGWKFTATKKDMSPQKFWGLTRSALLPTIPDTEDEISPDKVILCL
T3 sequence (P00519 whole entry, the tested form may be a part): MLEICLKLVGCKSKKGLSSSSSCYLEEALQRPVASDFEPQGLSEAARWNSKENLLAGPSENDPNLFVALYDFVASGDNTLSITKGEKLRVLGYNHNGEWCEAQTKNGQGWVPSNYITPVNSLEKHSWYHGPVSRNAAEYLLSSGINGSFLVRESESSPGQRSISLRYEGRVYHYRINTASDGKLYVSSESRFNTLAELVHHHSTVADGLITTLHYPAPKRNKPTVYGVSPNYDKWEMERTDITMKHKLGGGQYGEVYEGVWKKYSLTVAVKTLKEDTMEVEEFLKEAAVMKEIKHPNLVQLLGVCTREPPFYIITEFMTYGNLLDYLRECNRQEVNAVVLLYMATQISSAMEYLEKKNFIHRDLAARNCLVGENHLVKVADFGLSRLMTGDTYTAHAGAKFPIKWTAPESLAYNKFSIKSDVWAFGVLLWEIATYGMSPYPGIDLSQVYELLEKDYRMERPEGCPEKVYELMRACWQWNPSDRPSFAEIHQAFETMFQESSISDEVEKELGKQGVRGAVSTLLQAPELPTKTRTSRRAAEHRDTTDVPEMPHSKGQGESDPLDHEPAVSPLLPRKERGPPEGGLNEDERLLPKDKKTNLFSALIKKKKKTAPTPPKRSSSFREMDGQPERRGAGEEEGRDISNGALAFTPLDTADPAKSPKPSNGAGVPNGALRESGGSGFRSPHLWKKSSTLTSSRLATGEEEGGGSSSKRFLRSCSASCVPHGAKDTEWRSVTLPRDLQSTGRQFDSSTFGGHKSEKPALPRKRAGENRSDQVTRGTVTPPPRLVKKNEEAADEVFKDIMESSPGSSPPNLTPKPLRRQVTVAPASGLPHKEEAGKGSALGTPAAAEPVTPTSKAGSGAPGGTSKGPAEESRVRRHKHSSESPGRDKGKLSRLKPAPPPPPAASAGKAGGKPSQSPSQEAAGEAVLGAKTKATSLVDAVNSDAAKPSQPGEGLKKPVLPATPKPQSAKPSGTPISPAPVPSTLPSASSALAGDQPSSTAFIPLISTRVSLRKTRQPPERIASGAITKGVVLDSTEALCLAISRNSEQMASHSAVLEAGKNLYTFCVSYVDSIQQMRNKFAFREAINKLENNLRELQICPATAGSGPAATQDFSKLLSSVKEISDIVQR
T3 sequence (Q96SW2 whole entry partner, the tested form may be a part): as the sequence (Q96SW2 whole entry) above

## CN(c1nccnc1CNc1nc(Nc2ccc(N3CCN(CC4CCN(c5cccc6c5C(=O)N(N5CCC(=O)NC5=O)C6=O)CC4)CC3)cc2)ncc1C(F)(F)F)S(C)(=O)=O [GT-07469, N-(3-(((2-((4-(4-((1-(2-(2,4-dioxotetrahydropyrimidin-1(2H)-yl)-1,3-dioxoisoindolin-4-yl)piperidin-4-yl)methyl)piperazin-1-yl)phenyl)amino)-5-(trifluoromethyl)pyrimidin-4-yl)amino)methyl)pyrazin-2-yl)-N-methylmethanesulfonamide]
[1]; MDA-MB-231, 10 nM, read-out: Inhibition Rate at 10 nM (%)
  inhibition at 0.01 µM: 30 to 40%
[1]; MDA-MB-231, 500 nM, read-out: Inhibition Rate at 500 nM (%)
  inhibition at 0.5 µM: 50 to 60%
[2]
  Degradation of substrate protein FAK (substrate protein remaining %): A (0%≤substrate protein remaining %≤80%)
[3]; Table IG2, FAK inhibitor-based
  inhibition at 0.01 µM: 0 to 5%
  inhibition at 0.5 µM: 80 to 100%

## CS(=O)(=O)c1cccc(CNc2nc(Nc3ccc(N4CCN(CC5CCN(c6ccc7c(c6)C(=O)N(N6CCC(=O)NC6=O)C7=O)CC5)CC4)cc3)ncc2C(F)(F)F)c1 [GT-07470, 2-(2,4-dioxotetrahydropyrimidin-1(2H)-yl)-5-(4-((4-(4-((4-((3-(methylsulfonyl)benzyl)amino)-5-(trifluoromethyl)pyrimidin-2-yl)amino)phenyl)piperazin-1-yl)methyl)piperidin-1-yl)isoindoline-1,3-dione]
[2]
  Degradation of substrate protein FAK (substrate protein remaining %): A (0%≤substrate protein remaining %≤80%)

## CS(=O)(=O)c1cccc(CNc2nc(Nc3ccc(N4CCN(CC5CCN(c6cccc7c6C(=O)N(N6CCC(=O)NC6=O)C7=O)CC5)CC4)cc3)ncc2C(F)(F)F)c1 [GT-07471, 2-(2,4-dioxotetrahydropyrimidin-1(2H)-yl)-4-(4-((4-(4-((4-((3-(methylsulfonyl)benzyl)amino)-5-(trifluoromethyl)pyrimidin-2-yl)amino)phenyl)piperazin-1-yl)methyl)piperidin-1-yl)isoindoline-1,3-dione]
[2]
  Degradation of substrate protein FAK (substrate protein remaining %): A (0%≤substrate protein remaining %≤80%)

## CS(=O)(=O)c1cccc(CNc2nc(Nc3ccc(N4CCN(Cc5ccc6c(c5)CN(N5CCC(=O)NC5=O)C6=O)CC4)cc3)ncc2C(F)(F)F)c1 [GT-07514, 1-(5-((4-(4-((4-((3-(methylsulfonyl)benzyl)amino)-5-(trifluoromethyl)pyrimidin-2-yl)amino)phenyl)piperazin-1-yl)methyl)-1-oxoisoindolin-2-yl)dihydropyrimidine-2,4 (1H,3H)-dione]
[2]
  Degradation of substrate protein FAK (substrate protein remaining %): A (0%≤substrate protein remaining %≤80%)
[4]; 0.5 μM
  Inhibition Rate at 0.5 μM (%): a3 (30% < a3 ≤ 40%)
[4]; 2 μM
  Inhibition Rate at 2 μM (%): a5 (53% < a5 ≤ 60%)
[3]; Table IG2, FAK inhibitor-based
  inhibition at 0.01 µM: 30 to 40%
  inhibition at 0.5 µM: 80 to 100%

## CNC(=O)c1ccccc1Nc1cc(Nc2ccc(N3CCN(Cc4ccc5c(c4)C(=O)N(N4CCC(=O)NC4=O)C5=O)CC3)cc2OC)ncc1C(F)(F)F [GT-07661, 2-((2-((4-(4-((2-(2,4-dioxotetrahydropyrimidin-1(2H)-yl)-1,3-dioxoisoindolin-5-yl)methyl)piperazin-1-yl)-2-methoxyphenyl)amino)-5-(trifluoromethyl)pyridin-4-yl)amino)-N-methylbenzamide]
[5]; Table IG1, FAK inhibitor-based
  inhibition at 0.01 µM: 30 to 40%
  inhibition at 0.5 µM: 40 to 60%
[2]
  Degradation of substrate protein FAK (substrate protein remaining %): A (0%≤substrate protein remaining %≤80%)

## CNC(=O)c1ccccc1Nc1cc(Nc2cc(C)c(C3CCN(CC4CCN(c5ccc6c(c5)C(=O)N(N5CCC(=O)NC5=O)C6=O)CC4)CC3)cc2OC(C)C)ncc1C(F)(F)F [GT-07665, 2-((2-((4-(1-((1-(2-(2,4-dioxotetrahydropyrimidin-1(2H)-yl)-1,3-dioxoisoindolin-5-yl)piperidin-4-yl)methyl)piperidin-4-yl)-2-isopropoxy-5-methylphenyl)amino)-5-(trifluoromethyl)pyridin-4-yl)amino)-N-methylbenzamide]
[2]
  Degradation of substrate protein FAK (substrate protein remaining %): A (0%≤substrate protein remaining %≤80%)

## CNC(=O)c1ccccc1Nc1cc(Nc2cc(C)c(C3CCN(CC4CCN(c5cccc6c5C(=O)N(N5CCC(=O)NC5=O)C6=O)CC4)CC3)cc2OC(C)C)ncc1C(F)(F)F [GT-07666, 2-((2-((4-(1-((1-(2-(2,4-dioxotetrahydropyrimidin-1(2H)-yl)-1,3-dioxoisoindolin-4-yl)piperidin-4-yl)methyl)piperidin-4-yl)-2-isopropoxy-5-methylphenyl)amino)-5-(trifluoromethyl)pyridin-4-yl)amino)-N-methylbenzamide]
[2]
  Degradation of substrate protein FAK (substrate protein remaining %): A (0%≤substrate protein remaining %≤80%)

## Cc1ccc(C(=O)Nc2ccc(CN3CCN(Cc4ccc5c(c4)CN(N4CCC(=O)NC4=O)C5=O)CC3)c(C(F)(F)F)c2)cc1C#Cc1cnc2cccnn12 [GT-08216, N-(4-((4-((2-(2,4-dioxotetrahydropyrimidin-1(2H)-yl)-1-oxoisoindolin-5-yl)methyl)piperazin-1-yl)methyl)-3-(trifluoromethyl)phenyl)-3-(imidazo[1,2-b]pyridazin-3-ylethynyl)-4-methylbenzamide]
[5]; [8]
  inhibition at 0.01 µM: 20 to 30%
  inhibition at 0.5 µM: 80 to 100%
[6]
  Degradation of substrate protein C-ABL; BCR-ABL (substrate protein remaining %): A (0%≤substrate protein remaining %≤80%)
[3]; [9]
  inhibition at 0.01 µM: 80 to 100%
  inhibition at 0.5 µM: 80 to 100%
[7]; 10 nM, read-out: Inhibition Rate at 10 nM (%)
  inhibition at 0.01 µM: 20 to 30%
[7]; 500 nM, read-out: Inhibition Rate at 500 nM (%)
  inhibition at 0.5 µM: 80 to 100%
